pIC50: −log10 of the molar value. A value given as a limit tells only on which side of the number the result lay.

This test relates to TEAD reporter-containing human breast cancer cell line MCF7. Nature of the test: TEAD reporter (luciferase) assay. In kind it is cell-based. Particulars: TEAD reporter MCF7 cells, 24 hours treatment, 1% serum media. The method, then:
The TEAD reporter-containing human breast cancer cell line MCF7 (60618, BPS bioscience) was cultured according to the manufacturer's instructions. Cells were plated in 96-well white plates at a density of 30,000 per well and incubated overnight. The following day cells were treated with small molecules in 1% serum media (0.1% v/v DMSO). After 24 hours of the treatment, cell viability was evaluated by using CCK-8 reagent (CK04, Dojindo) and measuring absorbance at 450 nm. Then, the assay for luciferase activity was performed using Dual-Glo® Luciferase Assay System (Promega, E2940) following the manufacturer's instructions. Luminescence intensity was measured and the potency of the compounds was determined by IC50 value generated from non-linear regression analysis of the dose-response curves.
IC50 for luciferase activity are shown in the Table 1 below and designated within the following ranges. [+++: ≤0.1 μM, ++: >0.1 μM to ≤1 μM, +: >1 μM to ≤10 μM, −: >10 μM]
The pIC50 is −log10 of the IC50, conventionally taken in molar units. Lower therefore signals a large IC50. Consider `C=CC(=O)Nc1cnc2c(c1)c(/C=C/c1ccsc1)cn2C` [Example 59, (E)-N-(1-Methyl-3-(2-(thiophen-3-yl)vinyl)-1H-pyrrolo[2,3-b]pyridin-5-yl)acrylamide], for which the pIC50 was 6.00 to 7.00.

`C=CC(=O)Nc1cnc2c(c1)c(-c1cc(C)c(O)c(C)c1)cn2C` [Example 113, N-(3-(4-Hydroxy-3,5-dimethylphenyl)-1-methyl-1H-pyrrolo[2,3-b]pyridin-5-yl)acrylamide] had a negative logarithm of the IC50 (pIC50) of less than 5.00.

In turn, `C=CC(=O)Nc1cnc2c(c1)c(-c1ccc(SC)cc1)cn2C` [Compound 55, N-(1-Methyl-3-(4-(methylthio)phenyl)-1H-pyrrolo[2,3-b]pyridin-5-yl)acrylamide] showed a pIC50 of 6.00 to 7.00.

For `C=CC(=O)Nc1cnc2c(c1)c(CC1CCCCC1)cn2C` [Example 138, N-(3-(Cyclohexylmethyl)-1-methyl-1H-pyrrolo[2,3-b]pyridin-5-yl)acrylamide], the negative logarithm of the IC50 (pIC50) is no less than 7.00.

Regarding `C=CC(=O)Nc1ccc2c(c1)c(/C=C/c1ccc(Cl)cc1)cn2C(C)=O` [Example 75, (E)-N-(1-Acetyl-3-(4-chlorostyryl)-1H-indol-5-yl)acrylamide], the pIC50 is less than 5.00.

`C=CC(=O)Nc1ccc2c(c1)c(C1=CCC(OC)CC1)cn2C` (centres unmarked) [Example 125, N-(3-(4-Methoxycyclohex-1-en-1-yl)-1-methyl-1H-indol-5-yl)acrylamide] had a negative-log IC50 (pIC50) of 5.00 to 6.00.

Compound `C=CC(=O)Nc1cnc2ccn(Cc3ccc(C(F)(F)F)cc3)c2c1` [Example 76, N-(1-(4-(Trifluoromethyl)benzyl)-1H-pyrrolo[3,2-b]pyridin-6-yl)acrylamide] had a pIC50 of no less than 7.00.

Take `C=CC(=O)Nc1cnc2c(c1)c(-c1ccc(C(C)(C)C)cc1)cn2C` [Example 109, N-(3-(4-(tert-Butyl)phenyl)-1-methyl-1H-pyrrolo[2,3-b]pyridin-5-yl)acrylamide]: the pIC50 was 5.00 to 6.00.

`C=CC(=O)Nc1cnc2c(c1)c(/C=C/C1CCC(F)(F)CC1)cn2C1CCCC1` [Compound 9, (E)-N-(1-Cyclopentyl-3-(2-(4,4-difluorocyclohexyl)vinyl)-1H-pyrrolo[2,3-b]pyridin-5-yl)acrylamide]: the negative logarithm of the IC50 (pIC50) is no less than 7.00.

`Cn1cc(/C=C/c2ccc(Cl)cc2)c2cc(NS(C)(=O)=O)cnc21` [Example 117, (E)-N-(3-(4-Chlorostyryl)-1-methyl-1H-pyrrolo[2,3-b]pyridin-5-yl) methanesulfonamide] gave a negative logarithm of the IC50 (pIC50) of 6.00 to 7.00.

The compound `C=CC(=O)Nc1cnc2c(c1)c(-c1ccc(CCCC)cc1)cn2C` [Example 110, N-(3-(4-Butylphenyl)-1-methyl-1H-pyrrolo[2,3-b]pyridin-5-yl)acrylamide] had a pIC50 of 6.00 to 7.00.

In turn, `C=CC(=O)Nc1cnc2c(c1)c(/C=C/C1CC1)cn2C` [Example 60, (E)-N-(3-(2-Cyclopropylvinyl)-1-methyl-1H-pyrrolo[2,3-b]pyridin-5-yl)acrylamide] had a negative-log IC50 (pIC50) of 5.00 to 6.00.

In the case of `C=CC(=O)N(Cc1nn[nH]n1)c1cnc2c(c1)c(/C=C/c1ccc(Cl)cc1)cn2C` [Example 69, (E)-N-((2H-Tetrazol-5-yl)methyl)-N-(3-(4-chlorostyryl)-1-methyl-1H-pyrrolo[2,3-b]pyridin-5-yl)acrylamide], the pIC50 was 5.00 to 6.00.

Consider `CN(C)C/C=C/C(=O)Nc1cnc2c(c1)c(-c1ccc(C(F)(F)F)cc1)cn2C` [Example 120, (E)-4-(Dimethylamino)-N-(1-methyl-3-(4-(trifluoromethyl)phenyl)-1H-pyrrolo[2,3-b]pyridin-5-yl) but-2-enamide 2,2,2-trifluoroacetate], for which the pIC50 is 5.00 to 6.00.

In turn, `C=CC(=O)Nc1cnc2c(c1)c(-c1cccc(Oc3ccccc3)c1)cn2C` [Example 94, N-(1-Methyl-3-(3-phenoxyphenyl)-1H-pyrrolo[2,3-b]pyridin-5-yl)acrylamide] gave a pIC50 of 6.00 to 7.00.

`C=CC(=O)Nc1ccc2c(/C=C/c3ccc(Cl)cc3)cn(C)c2c1` [Compound 12, (E)-N-(3-(4-Chlorostyryl)-1-methyl-1H-indol-6-yl)acrylamide] gave a pIC50 of 6.00 to 7.00.

For the compound `C=CC(=O)Nc1cnc2c(c1)c(-c1ccc(N3CCCCC3)cc1)cn2C` [Example 102, N-(1-Methyl-3-(4-(piperidin-1-yl)phenyl)-1H-pyrrolo[2,3-b]pyridin-5-yl)acrylamide], the pIC50 is 5.00 to 6.00.

With `C=CC(=O)Nc1cnc2c(c1)c(/C=C/c1ccc(Cl)cc1)cn2C(C)C` [Compound 20, (E)-N-(3-(4-Chlorostyryl)-1-isopropyl-1H-pyrrolo[2,3-b]pyridin-5-yl)acrylamide], the pIC50 was 5.00 to 6.00.

Compound `C=CC(=O)N(CC(=O)O)c1cnc2c(c1)c(/C=C/c1ccc(Cl)cc1)cn2C` [Example 65, (E)-N-Acryloyl-N-(3-(4-chlorostyryl)-1-methyl-1H-pyrrolo[2,3-b]pyridin-5-yl)glycine] had a negative-log IC50 (pIC50) of less than 5.00.

Compound `C=CC(=O)Nc1ccc2c(c1)c(/C=C/C1CCC(F)(F)CC1)nn2C1CCCC1` [Compound 7, (E)-N-(1-Cyclopentyl-3-(2-(4,4-difluorocyclohexyl)vinyl)-1H-indazol-5-yl)acrylamide] showed a pIC50 of 6.00 to 7.00.

For `C=CC(=O)Nc1ccc2c(c1)c(/C=C/c1ccc(F)cc1)cn2C(C)C` [Compound 29, (E)-N-(3-(4-Fluorostyryl)-1-isopropyl-1H-indol-5-yl)acrylamide], the pIC50 was less than 5.00.

For `C=CC(=O)Nc1ccc2c(c1)c(/C=C/c1ccc(Cl)cc1)nn2C(C)C` [Compound 6, (E)-N-(3-(4-Chlorostyryl)-1-isopropyl-1H-indazol-5-yl)acrylamide], the negative logarithm of the IC50 (pIC50) was less than 5.00.

In the case of `C=CC(=O)Nc1cnc2c(c1)c(-c1cccc(CCC3CCC(F)(F)CC3)c1)cn2C` [Example 86, N-(3-(3-(2-(4,4-Difluorocyclohexyl)ethyl)phenyl)-1-methyl-1H-pyrrolo[2,3-b]pyridin-5-yl)acrylamide], the pIC50 was 6.00 to 7.00.

As for `C=CC(=O)Nc1cnc2ccn(Cc3ccc(F)cc3)c2c1` [Example 78, N-(1-(4-Fluorobenzyl)-1H-pyrrolo[3,2-b]pyridin-6-yl)acrylamide], the pIC50 was 6.00 to 7.00.

`C=CS(=O)(=O)Nc1cnc2c(c1)c(/C=C/c1ccc(Cl)cc1)cn2C` [Example 116, (E)-N-(3-(4-Chlorostyryl)-1-methyl-1H-pyrrolo[2,3-b]pyridin-5-yl) ethenesulfonamide] had a pIC50 of 6.00 to 7.00.

On to `C=CC(=O)Nc1ccc2c(c1)c(C1=CCC(C)(C)CC1)cn2C` [Example 124, N-(3-(4,4-dimethylcyclohex-1-en-1-yl)-1-methyl-1H-indol-5-yl)acrylamide], for which the pIC50 is no less than 7.00.

`C=CC(=O)Nc1cnc2c(c1)c(-c1ccc(CCCCCCCCC)cc1)cn2C` [Example 112, N-(1-Methyl-3-(4-nonylphenyl)-1H-pyrrolo[2,3-b]pyridin-5-yl)acrylamide]: the pIC50 was less than 5.00.

`C=CC(=O)Nc1cnc2c(c1)c(/C=C/c1cccs1)cn2C` [Example 82, (E)-N-(1-Methyl-3-(2-(thiophen-2-yl)vinyl)-1H-pyrrolo[2,3-b]pyridin-5-yl)acrylamide] showed a pIC50 of 6.00 to 7.00.

`C=CC(=O)Nc1cnc2c(c1)c(-c1ccc(C#N)cc1)cn2C` [Example 57, N-(3-(4-Cyanophenyl)-1-methyl-1H-pyrrolo[2,3-b]pyridin-5-yl)acrylamide] showed a negative-log IC50 (pIC50) of 5.00 to 6.00.

Turning to `C=CC(=O)Nc1cnc2c(c1)c(-c1ccc(Cl)c(F)c1)cn2C(F)F` [Example 133, N-(3-(4-Chloro-3-fluorophenyl)-1-(difluoromethyl)-1H-pyrrolo[2,3-b]pyridin-5-yl)acrylamide], the pIC50 was 5.00 to 6.00.

For the compound `Cn1cc(/C=C/c2ccc(Cl)cc2)c2cc(NC(=O)CC#N)cnc21` [Example 115, (E)-N-(3-(4-chlorostyryl)-1-methyl-1H-pyrrolo[2,3-b]pyridin-5-yl)-2-cyanoacetamide], the pIC50 is less than 5.00.

With `C=CC(=O)Nc1cnc2c(c1)c(/C=C/c1cccc(OC)c1)cn2C` [Compound 48, (E)-N-(3-(3-Methoxystyryl)-1-methyl-1H-pyrrolo[2,3-b]pyridin-5-yl)acrylamide], the pIC50 was 5.00 to 6.00.

The compound `C=CC(=O)Nc1ccc2c(c1)c(C1CCCCC1)cn2C` [Example 123, N-(3-Cyclohexyl-1-methyl-1H-indol-5-yl)acrylamide] had a pIC50 of no less than 7.00.

`C=CC(=O)Nc1cnc2c(c1)c(/C=C/C1CCOCC1)cn2C` [Example 58, (E)-N-(1-Methyl-3-(2-(tetrahydro-2H-pyran-4-yl)vinyl)-1H-pyrrolo[2,3-b]pyridin-5-yl)acrylamide]: the pIC50 is 6.00 to 7.00.

Regarding `C=CC(=O)Nc1cnc2c(c1)c(-c1cccc(C(F)(F)F)c1)cn2C` [Compound 54, N-(1-Methyl-3-(3-(trifluoromethyl)phenyl)-1H-pyrrolo[2,3-b]pyridin-5-yl)acrylamide], the pIC50 was no less than 7.00.

The compound `C=CC(=O)Nc1ccc2c(c1)c(C1CCC(OC)CC1)cn2C` (centres unmarked) [Example 126, N-(3-(4-Methoxycyclohexyl)-1-methyl-1H-indol-5-yl)acrylamide] gave a negative-log IC50 (pIC50) of less than 5.00.

`C=CC(=O)Nc1cnc2c(c1)c(/C=C/C1CC1C(=O)OCC)cn2C` (centres unmarked) [Example 62, Ethyl (E)-2-(2-(5-acrylamido-1-methyl-1H-pyrrolo[2,3-b]pyridin-3-yl)vinyl)cyclopropane-1-carboxylate] had a pIC50 of less than 5.00.

`C=CC(=O)Nc1cnc2c(c1)c(-c1ccc(C3CCCCC3)cc1)cn2C` [Example 108, N-(3-(4-Cyclohexylphenyl)-1-methyl-1H-pyrrolo[2,3-b]pyridin-5-yl)acrylamide] had a pIC50 of 6.00 to 7.00.

Values taken from patent US20250282735A1, “BICYCLE COMPOUNDS AS TEAD INHIBITOR” (DONG-A ST CO., LTD., priority 2022, published 2025).
